# Laboratory results from US9440973B2, “Pyrido[3,4-d]pyrimidine-2,4(1H,3H)-dione derivatives” (Hydra Biosciences, Inc., priority 2014, dated 2016).
# Target: T1, TRPC5 channel (Homo sapiens, UniProt Q9UL62)
# T1 construct: expressed in transfected cells; host or cells: HEK293/TREx (Invitrogen), tetracycline-induced
# T1 sequence (Q9UL62 1-973): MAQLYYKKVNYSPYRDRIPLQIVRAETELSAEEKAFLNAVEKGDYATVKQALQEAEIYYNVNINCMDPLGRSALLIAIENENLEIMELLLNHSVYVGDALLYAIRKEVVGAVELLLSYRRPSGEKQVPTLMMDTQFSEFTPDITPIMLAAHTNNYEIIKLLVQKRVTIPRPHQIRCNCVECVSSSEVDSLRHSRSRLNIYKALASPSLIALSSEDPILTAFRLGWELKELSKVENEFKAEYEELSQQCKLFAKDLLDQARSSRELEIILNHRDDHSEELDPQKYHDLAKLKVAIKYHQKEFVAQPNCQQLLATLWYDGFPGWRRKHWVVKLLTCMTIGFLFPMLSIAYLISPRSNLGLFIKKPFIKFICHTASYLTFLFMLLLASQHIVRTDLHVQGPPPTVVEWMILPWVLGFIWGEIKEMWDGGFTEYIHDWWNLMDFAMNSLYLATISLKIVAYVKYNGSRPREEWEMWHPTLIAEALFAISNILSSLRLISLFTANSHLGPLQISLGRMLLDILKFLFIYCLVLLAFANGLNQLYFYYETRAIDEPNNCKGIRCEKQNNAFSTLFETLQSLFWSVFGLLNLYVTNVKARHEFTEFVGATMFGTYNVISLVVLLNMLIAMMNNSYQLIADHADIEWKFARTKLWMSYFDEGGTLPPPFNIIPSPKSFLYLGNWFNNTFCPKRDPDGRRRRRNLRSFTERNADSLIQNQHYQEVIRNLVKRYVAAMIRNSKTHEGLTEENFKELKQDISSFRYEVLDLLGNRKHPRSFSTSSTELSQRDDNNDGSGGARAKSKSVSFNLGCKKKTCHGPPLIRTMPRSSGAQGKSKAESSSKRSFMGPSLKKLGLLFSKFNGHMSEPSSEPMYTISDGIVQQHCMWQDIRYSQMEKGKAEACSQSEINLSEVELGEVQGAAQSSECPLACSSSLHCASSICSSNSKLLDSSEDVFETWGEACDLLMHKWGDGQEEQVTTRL
# Test: Whole-cell patch clamp experiments on TRPC5 current
# Type: cell-based
# Settings: TRPC5-expressing HEK293 TREx cells, current activated by LaCl3, holding potential −40 mV, currents quantified at −80 mV and +80 mV
# Source text: Patch clamp experiments permit the detection of currents through the TRPC5 channel in the cell line described above. In normal whole-cell patch clamp recordings, a glass electrode is brought into contact with a single cell and a high-resistance (gigaohm) seal is established with the cell membrane. The membrane is then ruptured to achieve the whole-cell configuration, permitting control of the voltage of the cell membrane and measurement of currents flowing across the membrane using the amplifier attached to the electrode and resulting in the replacement of cytoplasm with the pipette solution. A perfusion system permits control of the extracellular solution, including the addition of blockers and activators of the current. The current can be activated by including 1.4 μM free Ca^2+ in the pipette (intracellular) solution, and 80 μM LaCl3 in the extracellular solution.
# TRPC5 cells were induced 20-48 hours, removed from growth plates, and replated at low density (to attain good single-cell physical separation) on glass coverslips for measurement. In some cases, cells were grown in low density overnight on glass coverslips. […] Currents elicited were quantified at −80 mV and +80 mV. The internal solution consisted of 140 mM cesium aspartate, 10 mM HEDTA, 2 mM CaCl2, 2.27 mM MgCl2 and 10 mM HEPES, pH 7.2, with 1,400 nM calculated free Ca^2+. […]
row,IC50,SMILES
1,38.8 nM,"CC(C)c1ccccc1-c1ncc2c(c1Cc1ccc(Cl)cc1)c(=O)n(CCCO)c(=O)n2C [Compound 49, 5-(4-chlorobenzyl)-3-(3-hydroxypropyl)-6-(2-isopropylphenyl)-1-methylpyrido[3,4-d]pyrimidine-2,4(1H,3H)-dione]"

# Target: T1, TRPC5 channel
# Test: High throughput screening assay: Fluo4 cell-based fluorescence Ca2+ influx assay
# Settings: HEK293/TREx cells inducibly expressing TRPC5, inhibition of [Ca2+]i rise after high-Ca2+ Ringer (14 mM Ca2+), triplicate, 0.027-20 μM
# Source text: The assay depended on detection of the rise in intracellular Ca2+ concentration ([Ca2+]i) following channel activation in cells inducibly expressing the TRPC5 channel. Ca2+ rise was quantified with the use of fluorescent Ca2+ indicators that were loaded into cells and thereafter indicated the [Ca2+]i Ca2+ influx followed activation of the TRPC5 channel. Compounds inhibiting the [Ca2+]i rise were considered hits for further investigation.
# The commercially available HEK293/TREx line (Invitrogen) was stably transfected with a TRPC5 construct and screened by conventional calcium imaging to find clones with TRPC5 expression following stimulation with 1 μg/ml tetracycline. These cells were maintained in the growth medium recommended by the manufacturer supplemented with 100 μg/ml hygromycin to promote retention of the TRPC5 construct. After growing to near confluency, cells were plated at a density of ˜35,000 cells/well in 384 well CellBind plates (Corning) in the presence of 1 μg/ml tetracycline, and allowed to grow for 20-30 hrs. A nearly confluent monolayer resulted. Cells were then loaded with Ca2+ dye: Fura-2/AM or Fluo4/AM was added to the wells to a final concentration of 4 μM or 0.5 μM, respectively, and incubated for 80 min or 60 min, respectively, at room temperature. Supernatant was then removed from the cells by inverting plates with a sharp flick, and 25 μl Hank's Balanced Salt Solution (HBSS; 0.185 g/l D-glucose, 0.9767 g/l MgSO4 (anhydrous), 0.4 g/l KCl, 0.06 g/l KH2PO4 (anhydrous), 0.35 g/l NaHCO3, 8.0 g/l NaCl, and 0.04788 g/l Na2HPO4 (anhydrous); pH 7.4) was then added to each well. Following ˜0.5 hour for recovery from loading, cells were assayed using the Hamamatsu FDSS 6000 system, which permitted illumination alternately at 340 nm and 380 nm for Fura-2 experiments, or at 485 nm for Fluo4 experiments. Frames were acquired at a rate of 0.2 Hz. During the assay, the plates were continuously vortexed, with pipette mixing of wells following addition of each reagent. For the screening assay, 26 μl of a diluted compound stock (at 50 μM) was added to each well for 2 minutes following the collection of a short (4 frame) baseline. 13 μl 62 mM high-Ca2+ Ringer solution (4.17 ml of normal ringer (with 2 mM Ca2+) plus 5.83 ml of isotonic calcium ringer (105 mM Ca2+; in this ringer all sodium has been replaced with calcium)) was then added to each well, achieving a final concentration of 14 mM Ca2+ and 10 μM test compound. Data was collected for ˜3 minutes following addition of high Ca2+ Ringer, where the fluorescent intensity (for Fluo4) and the F340/F380 ratio (for Fura-2) were proportional to the [Ca2+]i Negative controls consisted of HEK293/TREx TRPC5 cells exposed to high Ca2+ solution, but no compound. Positive control conditions consisted of addition of 2-APB, a promiscuous blocker of TRPC5 and other channels, to columns 23 and 24 of the plates, to a final concentration of 200 μM. These controls defined a screening window, and “hits” were defined as those compounds inhibiting the fluorescence response by at least 40%. IC50 values were determined for compounds defined as “hits.” The Fluo4 cell-based fluorescence assay was used to determine the intracellular Ca2+ concentration in the presence of varying drug concentration. Final concentrations of compounds tested were 20 μM, 6.667 μM, 2.222 μM, 0.741 μM, 0.247 μM, 0.082 μM, and 0.027 μM. Compounds were tested in triplicate at all concentrations. Standard software was used to fit IC50 curves. A value of NF was assigned when no IC50 curves could not be fit.
# Additionally or alternatively, efficacy can be represented as % inhibition in the presence (of a given concentration of compound) versus the absence of compound or in comparison to a control compound. For example, efficacy can be represented as % inhibition of ion flux in the presence versus the absence of compound.
row,IC50,SMILES
1,8840 nM,"Cn1c(=O)n(CCCO)c(=O)c2c(Cc3ccc(Cl)cc3)c(Oc3cccc(Cl)c3)ncc21 [Compound 51, 5-(4-chlorobenzyl)-6-(3-chlorophenoxy)-3-(3-hydroxypropyl)-1-methylpyrido[3,4-d]pyrimidine-2,4(1H,3H)-dione]"
2,4180 nM,"CC(C)CCc1c(-c2cccc(Cl)c2)ncc2c1c(=O)n(CCCO)c(=O)n2C [Compound 52, 6-(3-chlorophenyl)-3-(3-hydroxypropyl)-5-isopentyl-1-methylpyrido[3,4-d]pyrimidine-2,4(1H,3H)-dione]"
3,195 nM,"Cn1c(=O)n(CCCO)c(=O)c2c(Cc3ccccc3)c(-c3cccc(OC(F)(F)F)c3)ncc21 [Compound 53, 5-benzyl-3-(3-hydroxypropyl)-1-methyl-6-(3-(trifluoromethoxy)phenyl)pyrido[3,4-d]pyrimidine-2,4(1H,3H)-dione]"

# Second part, the molecule before the results:
row,SMILES,IC50
1,"CC(C)c1ccccc1-c1cc2c(=O)n(CCCO)c(=O)n(C)c2cn1 [Compound 46, 3-(3-hydroxypropyl)-6-(2-isopropylphenyl)-1-methylpyrido[3,4-d]pyrimidine-2,4(1H,3H)-dione]",4240 nM
2,"Cn1c(=O)n(CCCO)c(=O)c2c(Cc3ccc(Cl)cc3)c(-c3ccc(Cl)cc3)ncc21 [Compound 47, 5-(4-chlorobenzyl)-6-(4-chlorophenyl)-3-(3-hydroxypropyl)-1-methylpyrido[3,4-d]pyrimidine-2,4(1H,3H)-dione]",1610 nM
3,"CC(C)CCc1c(-c2ccc(Cl)cc2)ncc2c1c(=O)n(CCCO)c(=O)n2C [Compound 48, 6-(4-chlorophenyl)-3-(3-hydroxypropyl)-5-isopentyl-1-methylpyrido[3,4-d]pyrimidine-2,4(1H,3H)-dione]",1600 nM
4,"CC(C)c1ccccc1-c1ncc2c(c1Cc1ccc(Cl)cc1)c(=O)n(CCCO)c(=O)n2C [Compound 49, 5-(4-chlorobenzyl)-3-(3-hydroxypropyl)-6-(2-isopropylphenyl)-1-methylpyrido[3,4-d]pyrimidine-2,4(1H,3H)-dione]",2360 nM
5,"CC(C)CCc1c(-c2ccccc2C(C)C)ncc2c1c(=O)n(CCCO)c(=O)n2C [Compound 50, 3-(3-hydroxypropyl)-5-isopentyl-6-(2-isopropylphenyl)-1-methylpyrido[3,4-d]pyrimidine-2,4(1H,3H)-dione]",9800 nM
